From US9476099B2 (TRUSTEES OF DARTMOUTH COLLEGE, priority 2012, dated 2016)

Legend:
NT2/D1 cells = test: Gene expression microarray with PAM cluster analysis (Tables 1-5); format: cell-based, human; conditions: 1.5-fold or greater
Protocol: The cisplatin treatment protocol has been previously described (Kerley-Hamilton et al. 2005. Oncogene 24:6090-6100).
The same effect was not observed in cells treated with cisplatin; gene expression levels were not dramatically altered in cisplatin-treated cells. […] The genes clustered into distinct patterns.
Next, partitioning around medoids (PAM) analysis was performed on the 1130 genes whose expression levels changed by 1.5-fold or greater as compared to control treatment. […] Changes in gene expression levels of representative genes for each cluster were confirmed in independent samples by real-time PCR (FIG. 10).
(§1) Expression analysis was performed on the […] HumanHT-12 v3 or […] HumanHT-12 v4 bead chip arrays ([…]) and scanned on the BeadArray Reader ([…]) according to manufacturer's instructions.

NT2 cells = test: Gene set enrichment analysis (GSEA) of microarray data (Table 6); format: cell-based, human
Protocol: Gene set enrichment analysis (GSEA) was performed.
as §1

[1] = test system: EC cell lines (NT2/D1, NT2D1/R1, 833K, 833KCP, and Tera-1); test: Cell-Titre Glo viable cell growth and survival, all EC cell lines; format: cell-based; conditions: 10 to 5000 nM added fresh each day for three days; FIG. 1
Protocol: Indicated doses of decitabine were added fresh each day for three days to exponentially growing cultures. Viable cell growth and survival were measured. Data are normalized to no drug treatment. EC cells are NT2/D1, NT2D1/R1, 833K, 833KCP, and Tera-1. Data are the average of 3 experiments in biological duplicate except for MCF-7 cells, which were assayed twice. Error bars are standard deviation (S.D.).
Cell growth and viability of five EC cell lines (NT2/D1, NT2D1/R1, 833K, 833KCP, and Tera-1) were determined, including two cell lines that are cisplatin-resistant (NT2/D1-R1 and 833KCP). Three control somatic tumor cell lines were also tested (HCT116, MCF7 and U2OS). […] Viable cell growth and survival were measured using Cell-Titre Glo (Promega) assays. […] These higher values are similar to the values shown in FIG. 1 for somatic tumor cell lines (MCF7, U2OS and HCT116).
NT2/D1, NT2D1-R1, 833K, 833K-CP, Tera-1, U20S, and HCT116 cells were cultured in DMEM with 10% FBS supplemented with glutamine and antibiotics except for MCF7 cells that were cultured in F12-DMEM. The derivation of the NT2/D1-resistant NT2/D1-R1 cell line has been previously described (Curtin et al. 2001. Oncogene 20:2559-2569; Kerley-Hamilton et al. 2007. Biochim. Biophys. Acta 1769:209-219). Cells were treated with the indicated dosages of 5-azadeoxycytidine (5-aza-CdR) for 3 days. This drug was replenished each day. […]

[2] = test system: non-seminiferous testicular cancer (germ cell testicular cancer); conditions: 75 mg/m^2, 3 infusions in one day, repeated once a week for 5 weeks; Clavel et al. 1992; cited from earlier work
U87 glioblastomoa cells = test: Decitabine treatment of glioblastoma cells; format: cell-based; conditions: doses as high as 1 μM
[3] = test system: colorectal cancer, cancer of the head and neck, renal carcinoma, or malignant melanoma; conditions: 75 mg/m^2, 3 treatments in one day, repeated once a week for 5 weeks; Abele et al. 1987; cited from earlier work
NT2/D1-R1 cells = test: Cisplatin sensitivity (cell viability) after low dose decitabine pretreatment; format: cell-based; conditions: 10 nM 3 days, 24 hour recovery, cisplatin 6 hours, viability 3 days later
Protocol: (§2) Cell viability was assayed 3 days later. For NT2D1-R1 cells, 10 nM decitabineR was employed. […] Data are the average of biological triplicates and representative of at least two experiments. Error bars are standard error of the mean (SEM).
(§3) Cell viability was assayed 3 days later. For NT2D1-R1 cells, 10 nM decitabineR was employed. […] Data are the average of biological triplicates and representative of at least two experiments. Error bars are SEM.
(§4) Five distinct lentiviral shRNAs for DNMT3B (sh84, sh85, sh86, sh87, and sh88) were used to knock down DNMT3B expression. Six potential alternatively spliced isoforms of DNMT3B exist; the most biologically relevant isoforms are variants 1, 2, 3 and 6 (Jones, P. A. and S. B. Baylin. 2007. Cell 128:683-692). […] Western blot analysis of NT2/D1 and NT2/D1-R1 cells was also performed with cells treated with DNMT3B shRNA ([…]) and employing DNMT3B antibody, H-230. The results confirmed the reduced expression of DNMT3B when the shRNA were employed. None of the DNMT3B-specific shRNAs affected levels of DNMT1 or DNMT3A (FIG. 2). […] However, knockdown of DNMT3B by itself had no apparent effect on the growth of NT2/D1 or NT2/D1-R1 cells. […] It had been previously reported that cisplatin causes a global p53-dominant transcriptional response in EC cells (Kerley-Hamilton et al. 2005. Oncogene 24:6090-6100). […]

833K-CP cells = test: as above; format: cell-based; conditions: 2.5 nM 3 days, 24 hour recovery, cisplatin 6 hours, viability 3 days later
Protocol: as §2, §3, §4

[4] = Gene Sets Depleted in NT2 Cells with 3-Day Decitabine Treatment (10 nM)
[5] = Gene Sets Enriched in NT2 Cells with 3-Day Decitabine Treatment (10 nM)

For `Nc1ncn([C@H]2C[C@H](O)[C@@H](CO)O2)c(=O)n1` [decitabine, 5-aza-deoxycytidine], the “Cluster 1: genes primarily up-regulated only with 3 days of decitabine treatment” value (NT2/D1 cells; 10 nM, 3 days) was 704 genes, the “Cluster 3: genes upregulated by both decitabine treatment and cisplatin treatment” value (NT2/D1 cells) was 71 genes and the “Cluster 4: genes down-regulated by decitabine, enriched in pluripotency genes” value (NT2/D1 cells) was 186 genes. The “Cluster 5: genes down-regulated by both decitabine treatment and cisplatin treatment” value (NT2/D1 cells) was 88 genes, the “NES, BENPORATH_ES_1” value (NT2 cells; [4]) was 2.6981 and the “NES, BENPORATH_ES_2” value (NT2 cells; [4]) was 2.3953. The “NES, BHATTACHARYA_EMBRYONIC_STEM_CELL” value (NT2 cells; [4]) was 2.2132, the “NES, CONRAD_STEM_CELL” value (NT2 cells; [4]) was 2.1627 and the “NES, MISSIAGLIA_REGULATED_BY_METHYLATION_DN” value (NT2 cells; [4]) was 2.1720. For the same compound, the “NES, MUELLER_PLURINET” value (NT2 cells; [4]) was 2.2694, the “NES, PAL_PRMT5_TARGETS_UP” value (NT2 cells; [4]) was 2.2049 and the “NES, SCHLOSSER_MYC_TARGETS_AND_SERUM_RESPONSE_DN” value (NT2 cells; [4]) was 2.2821. For the same compound, the “NES, SCHLOSSER_MYC_TARGETS_REPRESSED_BY_SERUM” value (NT2 cells; [4]) was 2.4043, the “NES, SCHUHMACHER_MYC_TARGETS_UP” value (NT2 cells; [4]) was 2.5662 and the “NES, VSE2F_02” value (NT2 cells; [4]) was 2.2708. For the same compound, the “NES, WONG_EMBRYONIC_STEM_CELL_CORE” value (NT2 cells; [4]) was 2.4279, the “NES, CONCANNON_APOPTOSIS_BY_EPOXOMICIN_UP” value (NT2 cells; [5]) was −2.2139 and the “NES, HAMAI_APOPTOSIS_VIA_TRAIL_DN” value (NT2 cells; [5]) was −1.9615. The “NES, HELLER_SILENCED_BY_METHYLATION_UP” value (NT2 cells; [5]) was −1.9604, the “NES, KERLEY_RESPONSE_TO_CISPLATIN_UP” value (NT2 cells; [5]) was −2.4408 and the “NES, KIM_RESPONSE_TO_TSA_AND_DECITABINE_UP” value (NT2 cells; [5]) was −1.9665. For the same compound, the “NES, KYNG_DNA_DAMAGE_BY_UV” value (NT2 cells; [5]) was −2.0319, the “NES, MISSIAGLIA_REGULATED_BY_METHYLATION_UP” value (NT2 cells; [5]) was −2.1687 and the “NES, MUELLER_METHYLATED_IN_GLIOBLASTOMA” value (NT2 cells; [5]) was −2.0961. The “NES, RUGO_UV_RESPONSE” value (NT2 cells; [5]) was −1.9676, the “growth of all EC cell lines” value [1] was “inhibited” and the “activity in Phase II clinical trial patients” value [2] was “no activity”. For the same compound, the “effect of decitabine treatment on U87 cells” value (U87 glioblastomoa cells) was “unaffected”, the “efficacy against cancer in patients” value [3] was “no efficacy” and the “effect of low dose decitabine pretreatment on cisplatin-induced growth suppression and toxicity” value (NT2/D1-R1 cells) was “restored cisplatin-induced growth suppression and toxicity”. For the same compound, the “effect of low dose decitabine pretreatment on cisplatin-induced growth suppression and toxicity” value (833K-CP cells) was “restored cisplatin-induced growth suppression and toxicity”.
